# Measured values as given in patent publication US12721823B2, “Methods and compositions for treatment of low circulating testosterone conditions” (University of Florida Research Foundation, Inc., priority 2021, dated 2026).
# How the values were obtained:
# KCC2 = test: Immunofluorescence of cell surface KCC2 expression in the PVN of the hypothalamus; type: in vivo, rat; conditions: G1 male rats; 1 h after last exposure on P60; vs control
# Procedure: Rats were anesthetized with sevoflurane and transcardially perfused with saline, followed by 4% paraformaldehyde (PFA) in 0.1 M phosphate buffer. The brains were collected and fixed in the 4% PFA overnight and then dehydrated in 30% sucrose solution in PBS at 4° C. for 2 days. The brains were cut into 18-um-thick coronal sections using a cryostat. After blocking with 10% norm goat serum for 1 h at room temperature, the slices were incubated with the primary antibody (rabbit anti-KCC2, 1:500; MilliporeSigma, Burlington, MA) in 10% norm goat serum at 4° C. overnight. After washing with PBS for 3×5 min, the slices were exposed to the secondary antibody, Alexafluor 549 goat anti-rabbit (Invitrogen, Carlsbad, CA). […] The immunofluorescence intensity of the KCC2-immunoreactive cells was measured using ImageJ software [National Institutes of Health (NIH)]. Three images from the PVN of the hypothalamus of each animal were taken and the average intensity values were calculated to use for statistical analysis. […] (FIGS. 2C-2F) Representative confocal images and quantitative analysis of the KCC2 immunoreactivity in the paraventricular nucleus (PVN) of the hypothalamus of the control and sevoflurane-exposed male (FIGS. 2C, 2E) and female (FIGS. 2D, 2F) rats. […]
# Sprague-Dawley rats = test: Acute serum corticosterone 1 h after last sevoflurane exposure (ELISA); type: in vivo, rat; conditions: sevoflurane 3 h on P56, P58, P60, 1 h after last exposure, vs control
# Procedure: Male and female rats in Generation 1 (G1) underwent anesthesia on postnatal days 56, 58 and 60. During this period, rats were held in a temperature-controlled chamber (+37° C.) with a continuous supply of 30% oxygen in air (1.5 L/min) during anesthesia-6% sevoflurane for 3 min for anesthesia induction and 2.1% sevoflurane for 177 min for anesthesia maintenance (the Sevoflurane group). Gas monitoring was performed using a calibrated Datex side stream analyzer (Datex-Ohmeda, Helsinki, Finland), which samples from the animal chamber interior. Rats in the G1 control group (Control) were not subjected to anesthesia. A subset of the rats in the G1 Control and Sevoflurane groups was sacrificed 1 h after the last exposure to sevoflurane (or equivalent timepoint in the Control group) to collect blood and brain tissue samples. FIG. 1 provides a schematic of experimental design. The remaining Control and Sevoflurane G1 male and female rats were mated on P85 to produce offspring (generation 2, G2). […] Serum corticosterone was measured using commercial ELISA kits (Cayman Chemical Company, Ann Arbor, MI, USA) according to the manufacturer's instructions. […] (FIGS. 2C-2F) Representative confocal images and quantitative analysis of the KCC2 immunoreactivity in the paraventricular nucleus (PVN) of the hypothalamus of the control and sevoflurane-exposed male (FIGS. 2C, 2E) and female (FIGS. 2D, 2F) rats. […]
smiles,measurement,setting,value
"FCOC(C(F)(F)F)C(F)(F)F [sevoflurane, 1,1,1,3,3,3-hexafluoro-2-(fluoromethoxy)propane]",cell surface KCC2 expression (KCC2 density) in the PVN of the hypothalamus,KCC2,reductions in KCC2 density
same,serum levels of corticosterone,Sprague-Dawley rats; G1 female rats,significantly increased
same,serum levels of corticosterone,Sprague-Dawley rats; G1 male rats,significantly increased
